Source: patent publication US20220226473A1, “Nucleic acid nanocarrier drug and preparation method thereof, pharmaceutical composition and application thereof” (BAI YAO ZHI DA (BEIJING) NANOBIO TECHNOLOGY CO., LTD., priority 2018, published 2022)
Read-outs that look alike come from different tables or passages of the source. {Biotin} = biotin (Bio) of the a-strand; {Bio} = biotin of the strand

Experiments:
[1] = test system: SH-SY5Y cells; experiment: Cytotoxicity in SH-SY5Y cells, CellTiter-Glo (Embodiment 8); assay type: cell-based
Method: (1) Using the RPMI1640+10% FBS+1% PS medium to culture the SH-SY5Y cells at 37 DEG C and 5% CO2.
(2) Collecting the cells, centrifuging at 800 rpm for 5 minutes, resuspending the medium, adjusting the cell concentration, and adding to the 96-well plate in a volume of 5000 cells per 90 μL.
(3) Diluting a sample to be tested with the culture medium on the next day, respectively adding 200 nM to each sample, herein each sample has 4 replicate wells for replication.
(4) After being cultured for 72 hours, adding 100 μL of the CTG reagent to each well, shaking for 2 minutes, and standing at the room temperature for 10 minutes, herein a whole process is protected from light.
(5) Finally using Soft Max Pro5 software to read.

[2] = test system: SGC-7901 cells; experiment: Cytotoxicity of DNAh-Biotin-EGFRapt-Cy5-THP nanoparticles; assay type: cell-based, human
Method: (§1) 2) adjusting the cell density to 2.22×10^4/mL with a growth medium:
(§2) 3) planting 90 μL/well of cell suspension into the 96-well plate, herein the number of cells per well in the plate is 2000;
(§3) 4) placing the planted cell plate in the incubator at 37 DEG C. and incubating overnight;
(§4) 5) performing 3.16-fold gradient dilution on the compound at 9 concentration points;
(§5) 6) taking out the cell culture plate, and adding 10 μL/well of 10× concentration drug working solution to the corresponding wells of the cell culture plate, herein three replicate holes are made for each concentration, and the final drug action concentration is shown in the table below.
(§6) 7) placing the cell culture plate in the incubator and continuously incubating for 96 hours;
(§7) 8) placing the CellTiter 96@D AQueous One Solution reagent at the room temperature and thawing for 90 minutes or thawing in a water bath at 37 DEG C., and then equilibrating at the room temperature for 30 minutes;
(§8) 9) adding 20 μL/well of the CellTiter 96® AQueous One Solution reagent to the cell culture plate;
(§9) 10) placing the cell culture plate in the incubator at 37 DEG C. and continuously incubating for 3 hours;
(§10) 11) using the microplate reader to read a OD490 value of each well in the cell plate; and
(§11) 12) data processing and analysis.
(§12) GraphPad Prism5.0 software is used to process data graphically. In order to calculate the IC50, […] non-linear regression analysis is performed on the data to match a suitable dosage-effect curve. A calculation formula of the cell survival rate is as follows, the IC50 may be automatically calculated in the GraphPad Prism 5.0.
(§13) Cell survival rate (%)=(ODtest well−ODblank control)/(ODnegative control−ODblank control)×100%.
(§14) II. Experiment Device and Method Same as (II)

[3] = test system: SKOV3 cells; experiment: as above; assay type: cell-based, human
Method: as §1, §2, §3, §4, §5, §6, §7, §8, §9, §10, §11, §12, §13, §14

[4] = test system: BXPC3 cells; experiment: Cytotoxicity of RNAh-Bio-670-gemcitabine nanoparticles; assay type: cell-based; details: Homo sapiens, BXPC-3
From the text: I. Samples to be tested: small molecular drug gemcitabine and […] nanoparticles

[5] = test system: MOLT4 cells; experiment: Cytotoxicity of RNAh-Bio-670-MTX nanoparticles, CTG; assay type: cell-based, human
Method: 1) Using the RPMI1640+10% FBS+1% PS medium to culture the MOLT4 cells at 37 DEG C. and 5% CO2.
2) Collecting the cells, centrifuging at 800 rpm for 5 minutes, resuspending the medium, adjusting the cell concentration, and adding to the 96-we plate in a volume of 5000 cells per 90 μL. […]
4) After being cultured for 72 hours, adding 100 μL of the CTG reagent to each well, shaking for 2 minutes, and standing at the room temperature for 10 minutes, herein a whole process is protected from light.
5) Finally using Soft Max Pro5 software to read.

[6] = test system: HL60 cells; experiment: Cytotoxicity of RNAh-Bio-670-EPB nanoparticles, CellTiter-Glo; assay type: cell-based
Method: Preparing a freshly prepared reagent into a corresponding volume container, and adding PBS to be quantified to 10 μM.
Cells are cultured at 37 DEG C. and 5% CO2 in a corresponding basal medium in which 10% FBS and 1% PS are respectively added. The cell density used in the experiment is above 80%. The cells are collected, and centrifuged at 1000 rpm for 4 minutes, the medium is resuspended, the cell concentration is adjusted, and it is added to the 96-well plate in a volume of 3000 cells per 50 μL, and each group has 3 replicate wells.
After 24 hours, the compound solution is transferred to each well by 50 μL/well.
The above cells after administration are cultured for 72 hours under a condition of 37 DEG C and 5% CO2.
The well plate is brought to a room temperature in advance and stands for 30 minutes, 100 μL of a CellTiter-Glo® reagent is added to each well of the well plate and mixed for 2 minutes on a shaker to promote cell lysis. The Perkin Elmer Envision 2104 Multilabel Reader is used to read values and the values are recorded.
The acquired experiment data is analyzed and processed by using excel software, and GraphPad Prism 5 software is used for curve fitting analysis.

[7] = test system: SH-SY5Y cells; experiment: Cytotoxicity of RNAh-Biotin-quasar670-aspirin nanoparticles, CTG kit; assay type: cell-based
Method: Experiment purpose: an effect of a compound on proliferation of a target tumor cell line is researched.
Experiment design: the compound is diluted in 8 concentration gradients and sequentially added to the target tumor cell line and incubated for 72 hours, the CTG kit is used to detect the effect of the compound on the cell proliferation.

[8] = test system: SGC7901 cells; experiment: Cytotoxicity of RNAh-Biotin-quasar670-hdcp nanoparticles; assay type: cell-based
[9] = Electric potential (zeta potential) measurement of self-assembly products; assay type: physicochemical; details: result over 3 detections, at 25 DEG C.
Method in brief: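 Self-assembled RNA or DNA nanoparticles dissolved in ultrapure water; zeta potential measured manually at 25 °C.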

[10] = test system: HepG2 cells; experiment: CCK8 toxicity of DNA nanoparticles and carrier drugs; assay type: cell-based; details: HepG2, CCK8, 72 hours
Method: A CCK8 method is used to detect the toxicity of DNA nanoparticles and carrier drugs to HepG2.
2. A sample to be tested is diluted according to the following table and added: the original culture medium is removed and 100 μL of a culture medium of the sample to be tested with the different concentration is added, and there are 3 replicate wells in each group.
In the present embodiment, the loaded drug and the blank carrier are firstly prepared into 100 μM of stock solution using the PBS, and then diluted with the complete culture medium (biotin-free DMEM). The original drug doxorubicin is firstly prepared into 100 NM of stock solution by using the DMSO, and then diluted with the complete culture medium (biotin-free DMEM). The DMSO is directly diluted with the complete medium (biotin-free DMEM).
3. After the sample to be tested is added, the 96-well plate is placed in an incubator under 37 DEG C. and 5% CO2 and incubated for 72 hours.
4. A kit is taken out and melted at a room temperature, 10 μL of CCK-8 solution is added to each wall, or the CCK8 solution is nixed with the culture medium at a ratio of 1:9, and then added to the well in an amount of 100 μL/well.
5. It is continuously incubated in the cell incubator for 4 hours, and a length of time depends on experimental conditions such as a cell type and a el density.
6. A microplate reader is used to measure an absorbance at 450 nm.
7. Calculation: cell viability (%)=(OD experimental group−OD blank group)[…]/(OD control group−OD blank group), IC50 is calculated by GraphPad Prism 5.0.

[11] = test system: HepG2 cells; experiment: Cell binding of DNA nanoparticles and carrier drugs by FACS; assay type: cell-based; details: incubated at 37 DEG C. for 2 h, flow cytometry
Method: 1. A cell state is adjusted to a logarithmic growth phase, the medium is changed into a medium without biotin and folic acid, and it is incubated overnight in an incubator at 37 DEG C.
2. After incubation, cell suspension is trypsinized and collected, and centrifuged at 1000 rpm for 5 min, after the concentration is adjusted, a 2×10^6-5×10^6 cell/EP tube is taken and washed twice with 1 mL/tube of 1% BSA-PBS, and cells at the bottom of the tube is observed to prevent them from being absorbed.
3. A substance to be tested is dissolved, and the substance to be tested is diluted to a use concentration.
4. Cell supernatant is absorbed, 100 μL of a corresponding sample is added to each tube in order, light is avoided, and it is incubated at 37 DEG C. for 2 h.
5. It is washed twice with 1% BSA-PBS; and centrifuged at 1000 rpm for 5 min.
6. Finally, it is precipitated with 300 μL of PBS cell resuspension, and flow Cytometric on-machine detection (the blank carrier used in the present embodiment is labeled by Quasar670, and the doxorubicin in the carrier drug has its own fluorescence, so the detection may be performed through FL4-APC and FL2-PE respectively) is performed.

[12] = TM value detection by solubility curve method (SYBR Green I); assay type: physicochemical; details: DNA nanoparticles
[13] = Particle size measurement (DLS hydrodynamic size); assay type: physicochemical; details: DLS hydrodynamic size
[14] = Drug loading rate of nucleic acid nanoparticles (chemical loading, absorbance standard curve); assay type: physicochemical; set-up: unit not given here; details: for doxorubicin loading rate: chemical loading method of Embodiment 5
[15] = highest administration concentration 10 μM

Nc1c2c(nc3ccccc13)CCCC2 [Tacrine, tacrine]
cell proliferation rate (%) ([1]; 200 nM, 72 h): 39.75%

COc1cccc2c1C(=O)c1c(O)c3c(c(O)c1C2=O)C[C@@](O)(C(=O)CO)C[C@@H]3O[C@H]1C[C@H](N)[C@H](O[C@@H]2CCCCO2)[C@H](C)O1 [THP, pirarubicin]
toxicity to SGC-7901 cells [2]: toxic to the SGC-7901 cells
IC50 ([2]; Homo sapiens, SGC-7901): 27.4 nM
toxicity to SKOV3 cells [3]: toxic to the SKOV3 cells
IC50 ([3]; Homo sapiens, SK-OV-3, SKOV3): 23.7 nM

Nc1ccn([C@@H]2O[C@H](CO)[C@@H](O)C2(F)F)c(=O)n1 [gemcitabine]
IC50 ([4]; BXPC3, 72 h, read-out: IC50): 34.2 nM
inhibition at 5 µM ([4]; administration concentration 5 μM, read-out: cell inhibition rate, BxPC3 cells): 83%
IC50 ([4]; read-out: IC50, BxPC3 cell proliferation): 34.1 nM

CN(Cc1cnc2nc(N)nc(N)c2n1)c1ccc(C(=O)N[C@@H](CCC(=O)O)C(=O)O)cc1 [Methotrexate (MTX)]
cell survival rate (%) ([5]; MOLT-4, 72 h, 200 nM): 2.88%

N.N.[Cl][Pt][Cl] [Cisplatin]
inhibition rate to the HL60 cells [6, 15]: 99.96%
inhibition rate to the MOLT4 cell proliferation ([5]; maximum administration concentration 5 μm): 99.94%
IC50 ([1]; highest administration concentration 5 μM): 510 nM
inhibition rate to the SH-SY5Y cells [7, 15]: 99.81%

CC(=O)Oc1ccccc1C(=O)O [aspirin]
IC50 ([7]; Homo sapiens, SH-SY5Y, 72 hours, read-out: IC50, SH-SY5Y cell proliferation): 1.43 mM
inhibition at 5 µM ([7]; Homo sapiens, SH-SY5Y, administration concentration 5 μM, 72 hours, read-out: cell inhibition rate, SH-SY5Y cells): 17.7%
IC50 ([7]; Homo sapiens, SH-SY5Y, 72 h, CTG kit, read-out: IC50): 1.43 mM

CC[C@@]1(O)C(=O)OCc2c1cc1n(c2=O)Cc2cc3cc(O)ccc3nc2-1 [10-hydroxycamptothecin]
Cell inhibition rate (%) when administration concentration is 5 μM ([8]; SGC7901, 72 h, 5 μM): 75.43%
cell inhibition rate (%), SGC7901 cells ([8]; administration concentration 5 μM): 75.43%

COc1cccc2c1C(=O)c1c(O)c3c(c(O)c1C2=O)C[C@@](O)(C(=O)CO)C[C@@H]3O[C@H]1C[C@H](N)[C@@H](O)[C@H](C)O1 [Epirubicin (EPB)]
IC50 ([6]; HL60, treatment time 72 h, CellTiter-Glo, read-out: IC50): 302 nM

CN(Cc1cnc2nc(N)nc(N)c2n1)c1ccc(C(=O)N[C@@H](CCC(=O)O)C(=O)O)cc1 [MTX, methotrexate]
effect on proliferation of MOLT4 cells ([5]; 200 nM, 72 hours): significant inhibitory effect on the proliferation of the MOLT4 cells

B1: D-13: extension fragment deformation+core short-sequence DNA nanoparticle, SEQ ID NO: 156-158, 3′ biotin (nucleic acid)
chain 1: GCGGCGAGCGGCGACGAGCGTTGCGGCCGGAGGCCGG
chain 2: CCGGCCTCCGGCCGCTTCGCCGCCAGCCGCC
chain 3: GGCGGCAGGCGGCCATAGCCGTCGCCGCTCGCCGC
modifications: chain 1: DNA, 3' {Bio}, backbone not given here; chain 2: DNA, backbone not given here; chain 3: DNA, backbone not given here; three-strand DNA nanoparticle carrier
Potential ZP, Experiment result [9]: −27.00 mV
IC50 [10]: > 1000 nM
Positive rate ([11]; HepG2, 1 μM): 97.6%
Positive rate ([11]; HepG2, 2 μM): 98.2%
TM value (° C.) [12]: 51.0 °C
Mean particle size (nm) [13]: 7.012 nm
doxorubicin loading rate [14]: 31.8

B2: D-14: extension fragment deformation+core short-sequence DNA nanoparticle, SEQ ID NO: 159-161, 3′ biotin (nucleic acid)
chain 1: GCGGCGAGCGGCGACGAGCGTTGCGGCCGGAGGCCGG
chain 2: CCGGCCTCCGGCCGCTTCGGCGCCAGCCGCC
chain 3: GGCGGCAGGCGCCCATAGCCGTCGCCGCTCGCCGC
modifications: chain 1: DNA, 3' {Biotin}, backbone not given here; chain 2: DNA, backbone not given here; chain 3: DNA, backbone not given here; three-strand DNA nanoparticle carrier
Potential ZP, Experiment result [9]: −28.73 mV
IC50 [10]: > 1000 nM
Positive rate ([11]; HepG2, 1 μM): 97.4%
Positive rate ([11]; HepG2, 2 μM): 98.3%
TM value (° C.) [12]: 49.2 °C
Mean particle size (nm) [13]: 6.896 nm
daunorubicin loading rate ([14]; absorbance at 492 nm): 25.1
doxorubicin loading rate [14]: 32
